Source: ChEMBL document CHEMBL5038618, “Discovery of PT-65 as a highly potent and selective Proteolysis-targeting chimera degrader of GSK3 for treating Alzheimer's disease” (Eur J Med Chem, 2021)

What was measured:
[1] = system: SH-SY5Y; assay: Induction of apoptosis in human SH-SY5Y cells assessed as early apoptotic cells at 10 uM preincubated for 2 hrs followed by coincubation with Abeta42 and measured after 72 hrs by Annexin V-FITC/propidium iodide staining based flow cytometry (Rvb=1%); assay type: functional; details: time 74 hrs
[2] = system: SH-SY5Y; assay: Induction of apoptosis in human SH-SY5Y cells assessed as necrotic cells at 10 uM preincubated for 2 hrs followed by coincubation with Abeta42 and measured after 72 hrs by Annexin V-FITC/propidium iodide staining based flow cytometry (Rvb=0.7%); assay type: functional; details: time 74 hrs
[3] = system: SH-SY5Y; assay: Induction of apoptosis in human SH-SY5Y cells assessed as live cells at 10 uM preincubated for 2 hrs followed by coincubation with Abeta42 and measured after 72 hrs by Annexin V-FITC/propidium iodide staining based flow cytometry (Rvb=94.8%); assay type: functional; details: time 74 hrs
[4] = system: SH-SY5Y; assay: Induction of apoptosis in human SH-SY5Y cells assessed as late apoptotic cells at 10 uM preincubated for 2 hrs followed by coincubation with Abeta42 and measured after 72 hrs by Annexin V-FITC/propidium iodide staining based flow cytometry (Rvb=3.5%); assay type: functional; details: time 74 hrs
[5] = molecular target: T1, Protein cereblon/Glycogen synthase kinase-3 beta (Homo sapiens, UniProt P49841+Q96SW2); assay: Protac activity at CRBN/GSK3beta in human SH-SY5Y cells assessed as induction of GSK3beta degradation at 1 uM measured after 24 hrs; assay type: cell-based
Target sequence in this assay (P49841 whole entry, looked up): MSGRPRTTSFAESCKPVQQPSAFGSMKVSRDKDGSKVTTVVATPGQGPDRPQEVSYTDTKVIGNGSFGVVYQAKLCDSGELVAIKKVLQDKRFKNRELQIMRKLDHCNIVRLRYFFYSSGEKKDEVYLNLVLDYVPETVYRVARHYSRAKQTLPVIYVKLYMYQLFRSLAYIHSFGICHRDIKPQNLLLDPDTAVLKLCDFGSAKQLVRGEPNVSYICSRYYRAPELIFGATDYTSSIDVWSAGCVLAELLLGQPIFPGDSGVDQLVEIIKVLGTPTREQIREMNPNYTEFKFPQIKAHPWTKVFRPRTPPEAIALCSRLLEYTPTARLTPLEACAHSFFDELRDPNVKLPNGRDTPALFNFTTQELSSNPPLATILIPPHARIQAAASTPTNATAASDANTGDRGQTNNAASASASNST
Target sequence in this assay (Q96SW2 whole entry, looked up): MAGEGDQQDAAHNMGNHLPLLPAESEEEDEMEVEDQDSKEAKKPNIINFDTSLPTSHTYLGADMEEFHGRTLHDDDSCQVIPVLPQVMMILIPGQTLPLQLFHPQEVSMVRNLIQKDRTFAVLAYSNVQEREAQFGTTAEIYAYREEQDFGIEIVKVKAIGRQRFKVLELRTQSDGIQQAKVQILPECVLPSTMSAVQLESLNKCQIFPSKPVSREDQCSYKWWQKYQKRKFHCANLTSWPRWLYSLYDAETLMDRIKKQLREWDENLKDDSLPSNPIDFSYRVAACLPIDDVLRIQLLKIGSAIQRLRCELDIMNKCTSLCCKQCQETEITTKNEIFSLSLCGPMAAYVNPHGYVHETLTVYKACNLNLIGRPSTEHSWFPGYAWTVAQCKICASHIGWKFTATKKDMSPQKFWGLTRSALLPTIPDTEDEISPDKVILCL

[6] = molecular target: T2, Protein cereblon/Glycogen synthase kinase-3 alpha (Homo sapiens, UniProt P49840+Q96SW2); assay: Protac activity at CRBN/GSK3alpha in human SH-SY5Y cells assessed as induction of GSK3alpha protein degradation at 1 uM measured after 24 hrs; assay type: cell-based
Target sequence in this assay (P49840 2-483 limits assumed): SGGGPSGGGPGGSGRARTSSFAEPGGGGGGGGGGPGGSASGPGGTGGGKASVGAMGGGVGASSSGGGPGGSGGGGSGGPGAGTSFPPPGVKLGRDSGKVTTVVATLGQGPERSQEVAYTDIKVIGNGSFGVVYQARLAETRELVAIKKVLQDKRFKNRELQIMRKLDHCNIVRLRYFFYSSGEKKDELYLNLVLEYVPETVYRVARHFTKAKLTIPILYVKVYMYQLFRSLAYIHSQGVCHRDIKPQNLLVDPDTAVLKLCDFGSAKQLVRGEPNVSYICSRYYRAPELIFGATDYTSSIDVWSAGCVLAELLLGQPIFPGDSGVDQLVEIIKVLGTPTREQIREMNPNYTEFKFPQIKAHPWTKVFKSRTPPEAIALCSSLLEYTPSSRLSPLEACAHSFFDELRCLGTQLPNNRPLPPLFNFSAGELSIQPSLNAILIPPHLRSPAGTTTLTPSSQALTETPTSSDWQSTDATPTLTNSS
Target sequence in this assay (Q96SW2 whole entry partner): as the sequence (Q96SW2 whole entry, looked up) above

[7] = molecular target: T2, Protein cereblon/Glycogen synthase kinase-3 alpha; assay: Protac activity at CRBN/GSK3alpha in human SH-SY5Y cells assessed as induction of GSK3alpha protein degradation at 10 uM measured after 24 hrs; assay type: cell-based
Target sequence in this assay (P49840 2-483 limits assumed): as the sequence (P49840 2-483 limits assumed) above
Target sequence in this assay (Q96SW2 whole entry partner): as the sequence (Q96SW2 whole entry, looked up) above

[8] = molecular target: T1, Protein cereblon/Glycogen synthase kinase-3 beta; assay: Protac activity at CRBN/GSK3beta in human SH-SY5Y cells assessed as induction of GSK3beta degradation at 10 uM measured after 24 hrs; assay type: cell-based
Target sequence in this assay (P49841 whole entry, looked up): as the sequence (P49841 whole entry, looked up) above
Target sequence in this assay (Q96SW2 whole entry, looked up): as the sequence (Q96SW2 whole entry, looked up) above

[9] = molecular target: T2, Protein cereblon/Glycogen synthase kinase-3 alpha; assay: Protac activity at CRBN/GSK3alpha in human SH-SY5Y cells assessed as induction of GSK3alpha degradation at 0.1 uM measured after 24 hrs; assay type: cell-based
Target sequence in this assay (P49840 2-483 limits assumed): as the sequence (P49840 2-483 limits assumed) above
Target sequence in this assay (Q96SW2 whole entry partner): as the sequence (Q96SW2 whole entry, looked up) above

[10] = molecular target: T1, Protein cereblon/Glycogen synthase kinase-3 beta; assay: Protac activity at CRBN/GSK3beta in human SH-SY5Y cells assessed as induction of GSK3beta degradation at 0.1 uM measured after 24 hrs; assay type: cell-based
Target sequence in this assay (P49841 whole entry, looked up): as the sequence (P49841 whole entry, looked up) above
Target sequence in this assay (Q96SW2 whole entry, looked up): as the sequence (Q96SW2 whole entry, looked up) above

[11] = molecular target: T1, Protein cereblon/Glycogen synthase kinase-3 beta; assay: Protac activity at CRBN/GSK3beta in human SH-SY5Y cells assessed as induction of GSK3beta degradation measured after 24 hrs; assay type: cell-based
Target sequence in this assay (P49841 whole entry): as the sequence (P49841 whole entry, looked up) above
Target sequence in this assay (Q96SW2 whole entry): as the sequence (Q96SW2 whole entry, looked up) above

[12] = molecular target: T2, Protein cereblon/Glycogen synthase kinase-3 alpha; assay: Protac activity at CRBN/GSK3alpha in human SH-SY5Y cells assessed as induction of GSK3alpha protein degradation measured after 24 hrs; assay type: cell-based
Target sequence in this assay (P49840 whole entry): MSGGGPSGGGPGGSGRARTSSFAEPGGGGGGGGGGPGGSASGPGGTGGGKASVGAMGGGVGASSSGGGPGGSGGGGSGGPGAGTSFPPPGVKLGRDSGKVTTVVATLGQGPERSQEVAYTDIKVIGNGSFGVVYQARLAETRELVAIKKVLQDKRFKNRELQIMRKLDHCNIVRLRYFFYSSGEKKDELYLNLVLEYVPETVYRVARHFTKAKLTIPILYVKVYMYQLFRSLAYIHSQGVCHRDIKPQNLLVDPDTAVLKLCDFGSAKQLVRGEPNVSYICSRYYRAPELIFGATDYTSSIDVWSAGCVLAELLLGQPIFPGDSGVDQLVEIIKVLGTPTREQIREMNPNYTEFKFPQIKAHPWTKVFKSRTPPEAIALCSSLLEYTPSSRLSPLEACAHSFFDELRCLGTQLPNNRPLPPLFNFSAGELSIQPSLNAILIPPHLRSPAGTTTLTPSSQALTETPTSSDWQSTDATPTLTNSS
Target sequence in this assay (Q96SW2 whole entry): as the sequence (Q96SW2 whole entry, looked up) above

| Activity [5] [%] | Activity [6] [%] | Activity [9] [%] | Activity [10] [%] | SMILES | other results |
| --- | --- | --- | --- | --- | --- |
| – | – | – | – | Cn1sc(=O)n(Cc2ccccc2)c1=O | Activity [1]: 1.3%; Activity [2]: 1.1%; Activity [3]: 92.4%; Activity [4]: 5.3% |
| 88.8 | 60.7 | – | – | COc1ccc(-c2ocnc2C(=O)NCCCc2cn(CCOCCOCCOCCOCCOCCOCCNc3cccc4c3C(=O)N(C3CCC(=O)NC3=O)C4=O)nn2)cc1Cl (stereo not given) | – |
| 25.9 | 46.5 | – | – | COc1ccc(-c2ocnc2C(=O)NCCCc2cn(CCOCCOCCOCCOCCNc3cccc4c3C(=O)N(C3CCC(=O)NC3=O)C4=O)nn2)cc1I (stereo not given) | – |
| 54.6 | 56.2 | – | – | COc1ccc(-c2ocnc2C(=O)NCCCc2cn(CCOCCOCCOCCOCCOCCNc3cccc4c3C(=O)N(C3CCC(=O)NC3=O)C4=O)nn2)cc1Cl (stereo not given) | Activity [7]: 84.6%; Activity [8]: 85.2% |
| 83.1 | 91.8 | 63.8 | 55.9 | Nc1ncc(-c2ccc(S(=O)(=O)N3CCN(CCc4cn(CCOCCOCCOCCOCCNc5cccc6c5C(=O)N(C5CCC(=O)NC5=O)C6=O)nn4)CC3)cc2)nc1C(=O)Nc1cccnc1 (stereo not given) | – |
| 36.8 | 62.4 | – | – | COc1ccc(-c2ocnc2C(=O)NCCCc2cn(CCOCCOCCOCCNc3cccc4c3C(=O)N(C3CCC(=O)NC3=O)C4=O)nn2)cc1Cl (stereo not given) | Activity [7]: 89.9%; Activity [8]: 73.3% |
| 89.7 | 93.8 | 69.3 | 54.6 | Nc1ncc(-c2ccc(S(=O)(=O)N3CCN(CCCCc4cn(CCOCCOCCOCCNc5cccc6c5C(=O)N(C5CCC(=O)NC5=O)C6=O)nn4)CC3)cc2)nc1C(=O)Nc1cccnc1 (stereo not given) | – |
| 22.8 | 60.9 | – | – | COc1ccc(-c2ocnc2C(=O)NCCCc2cn(CCOCCOCCOCCNc3cccc4c3C(=O)N(C3CCC(=O)NC3=O)C4=O)nn2)cc1I (stereo not given) | – |
| 25.5 | 46.1 | – | – | COc1ccc(-c2ocnc2C(=O)NCCCc2cn(CCOCCOCCNc3cccc4c3C(=O)N(C3CCC(=O)NC3=O)C4=O)nn2)cc1I (stereo not given) | – |
| 61.3 | 75.4 | 29.7 | 15.2 | Nc1ncc(-c2ccc(S(=O)(=O)N3CCN(Cc4cn(CCOCCOCCOCCOCCOCCOCCNc5cccc6c5C(=O)N(C5CCC(=O)NC5=O)C6=O)nn4)CC3)cc2)nc1C(=O)Nc1cccnc1 (stereo not given) | – |
| < 5 | < 5 | – | – | COc1ccc(-c2ocnc2C(=O)NCCCc2cn(CCOCCOCCOCCNC(=O)CNc3cccc4c3CN(C3CCC(=O)NC3=O)C4=O)nn2)cc1Cl (stereo not given) | Activity [7]: < 5%; Activity [8]: 35.8% |
| 86 | 93.9 | 66.3 | 55.9 | Nc1ncc(-c2ccc(S(=O)(=O)N3CCN(CCc4cn(CCOCCOCCOCCOCCOCCOCCNc5cccc6c5C(=O)N(C5CCC(=O)NC5=O)C6=O)nn4)CC3)cc2)nc1C(=O)Nc1cccnc1 (stereo not given) | – |
| 14.5 | 38.7 | – | – | COc1ccc(-c2ocnc2C(=O)NCCCn2cc(COCCOCCOCCOc3cccc4c3CN(C3CCC(=O)NC3=O)C4=O)nn2)cc1Cl (stereo not given) | Activity [7]: 76.4%; Activity [8]: 37.3% |
| 79.5 | 95.2 | 61.1 | 41.9 | Nc1ncc(-c2ccc(S(=O)(=O)N3CCN(CCc4cn(CCOCCOCCNc5cccc6c5C(=O)N(C5CCC(=O)NC5=O)C6=O)nn4)CC3)cc2)nc1C(=O)Nc1cccnc1 (stereo not given) | – |
| 79.1 | 90.7 | 65 | 51.6 | Nc1ncc(-c2ccc(S(=O)(=O)N3CCN(CCc4cn(CCOCCOCCOCCNc5cccc6c5C(=O)N(C5CCC(=O)NC5=O)C6=O)nn4)CC3)cc2)nc1C(=O)Nc1cccnc1 (stereo not given) | – |
| 50.1 | 25.2 | – | – | COc1ccc(-c2ocnc2C(=O)NCCCc2cn(CCOCCOCCOCCOCCOCCOCCNc3cccc4c3C(=O)N(C3CCC(=O)NC3=O)C4=O)nn2)cc1I (stereo not given) | – |
| 81.3 | 87.8 | 68.1 | 61.6 | Nc1ncc(-c2ccc(S(=O)(=O)N3CCN(CCc4cn(CCOCCOCCOCCOCCOCCNc5cccc6c5C(=O)N(C5CCC(=O)NC5=O)C6=O)nn4)CC3)cc2)nc1C(=O)Nc1cccnc1 (stereo not given) | – |
| 39.6 | 68.9 | 46.9 | 30.5 | Nc1ncc(-c2ccc(S(=O)(=O)N3CCN(Cc4cn(CCOCCOCCNc5cccc6c5C(=O)N(C5CCC(=O)NC5=O)C6=O)nn4)CC3)cc2)nc1C(=O)Nc1cccnc1 (stereo not given) | – |
| 84.4 | 90.3 | 68.5 | 63.7 | Nc1ncc(-c2ccc(S(=O)(=O)N3CCN(CCCCc4cn(CCOCCOCCOCCOCCNc5cccc6c5C(=O)N(C5CCC(=O)NC5=O)C6=O)nn4)CC3)cc2)nc1C(=O)Nc1cccnc1 (stereo not given) | DC50 [11]: 110 nM; DC50 [12]: 38.2 nM |
| 65 | 79.5 | 42 | 25.7 | Nc1ncc(-c2ccc(S(=O)(=O)N3CCN(Cc4cn(CCOCCOCCOCCOCCNc5cccc6c5C(=O)N(C5CCC(=O)NC5=O)C6=O)nn4)CC3)cc2)nc1C(=O)Nc1cccnc1 (stereo not given) | – |
| 87 | 91.4 | 71.9 | 56.7 | Nc1ncc(-c2ccc(S(=O)(=O)N3CCN(CCCCc4cn(CCOCCOCCOCCOCCOCCOCCNc5cccc6c5C(=O)N(C5CCC(=O)NC5=O)C6=O)nn4)CC3)cc2)nc1C(=O)Nc1cccnc1 (stereo not given) | DC50 [11]: 66.6 nM; DC50 [12]: 40.4 nM |
| < 5 | < 5 | – | – | COc1ccc(-c2ocnc2C(=O)NCCCn2cc(CCCCC(=O)N[C@@H](C(=O)N3C[C@H](O)C[C@H]3C(=O)NCc3ccc(-c4scnc4C)cc3)C(C)(C)C)nn2)cc1Cl | Activity [7]: < 5%; Activity [8]: < 5% |
| < 5 | < 5 | – | – | Nc1ncc(-c2ccc(S(=O)(=O)N3CCN(Cc4cn(CCOCCOCCOCCNC(=O)CNc5cccc6c5CN(C5CCC(=O)NC5=O)C6=O)nn4)CC3)cc2)nc1C(=O)Nc1cccnc1 (stereo not given) | – |
| 49.2 | 69.5 | – | – | COc1ccc(-c2ocnc2C(=O)NCCCc2cn(CCOCCOCCOCCOCCNc3cccc4c3C(=O)N(C3CCC(=O)NC3=O)C4=O)nn2)cc1Cl (stereo not given) | – |
| 63.8 | 77.2 | 47.4 | 28.9 | Nc1ncc(-c2ccc(S(=O)(=O)N3CCN(Cc4cn(CCOCCOCCOCCOCCOCCNc5cccc6c5C(=O)N(C5CCC(=O)NC5=O)C6=O)nn4)CC3)cc2)nc1C(=O)Nc1cccnc1 (stereo not given) | Activity [7]: 65.9%; Activity [8]: 74.5% |
| < 5 | < 5 | – | – | COc1ccc(-c2ocnc2C(=O)NCCCn2cc(COCCOCCOCCOCC(=O)N[C@@H](C(=O)N3C[C@H](O)C[C@H]3C(=O)NCc3ccc(-c4scnc4C)cc3)C(C)(C)C)nn2)cc1Cl | Activity [7]: < 5%; Activity [8]: < 5% |
| 46.6 | 75.6 | 45.4 | 29.9 | Nc1ncc(-c2ccc(S(=O)(=O)N3CCN(Cc4cn(CCOCCOCCOCCNc5cccc6c5C(=O)N(C5CCC(=O)NC5=O)C6=O)nn4)CC3)cc2)nc1C(=O)Nc1cccnc1 (stereo not given) | Activity [7]: 86.4%; Activity [8]: 80.2% |
| 56.5 | 55.6 | – | – | COc1ccc(-c2ocnc2C(=O)NCCCc2cn(CCOCCOCCOCCOCCOCCNc3cccc4c3C(=O)N(C3CCC(=O)NC3=O)C4=O)nn2)cc1I (stereo not given) | – |
| 88.3 | 95.1 | 70.9 | 38.2 | Nc1ncc(-c2ccc(S(=O)(=O)N3CCN(CCCCc4cn(CCOCCOCCNc5cccc6c5C(=O)N(C5CCC(=O)NC5=O)C6=O)nn4)CC3)cc2)nc1C(=O)Nc1cccnc1 (stereo not given) | – |
| 28.2 | 43.8 | – | – | COc1ccc(-c2ocnc2C(=O)NCCCc2cn(CCOCCOCCNc3cccc4c3C(=O)N(C3CCC(=O)NC3=O)C4=O)nn2)cc1Cl (stereo not given) | – |
